The values that follow come from US4305852A, “Polypeptide compositions” (American Home Products Corporation, priority 1980, dated 1981).

The test system of one test is T lymphocytes. Description: T lymphocyte proliferation, 3H-thymidine incorporation. It is filed as cell-based, male CBA/J or NZB mice. The settings on record: 48 h culture. The protocol: T lymphocytes are isolated from spleens of male CBA/J or NZB mice. Cell homogenates are prepared in Hank's balanced salt solution (HBSS). After removal of larger particles and repeated washing of the cells in HBSS they are suspended in minimum essential medium (MEM) and passed through a glass wool column to remove macrophages. The cells are then incubated on a nylon wool column at 37° C., 95% air, 5% CO2, for 45 minutes. The non-adherant T lymphocytes are then eluted from the column, counted, and adjusted to 20×10^6 cells/ml. 50 μl of cells are cultured (37° C., 95% air, 5% CO2) with compound, for 48 hours before the addition of 0.5 μCi. of 3H-thymidine for the last 16 hours of culture. The total volume of the culture system is 200 μl. The cells are then harvested on a multiple automatic sample harvester (Mash II), the glass fiber filter disks placed in 10 ml. of xylene base scintillation fluid, and counted for 1 minute in a liquid scintillation counter. Results are reported as CPM±SE.
For orientation: Dividing cells build labelled thymidine or BrdU into new DNA.

Test [1] concerns autologous rosette-forming cells. The settings on record: in vivo, athymic mice; cited from earlier work.
The subject of a further test is murine prothymocytes. The settings on record: in vitro; cited from earlier work.
The subject of the next test is cells of the B lineage. The settings on record: in vitro; cited from earlier work.

Where a SMILES comes first, the peptide text is derived from it. Where no end group is shown, it is not given here. [ ]: non-standard residue; d: D form.

On to `CC(=O)O.CC(=O)O.CC(=O)O.CC(C)[C@H](NC(=O)[C@H](CC(=O)O)NC(=O)[C@H](CCCCN)NC(=O)[C@@H](N)CCCNC(=N)N)C(=O)N[C@H](C)C(N)=O` [Arg--Lys--Asp--Val--D--Ala--NH2, L-arginyl-L-lysyl-L-aspartyl-L-valyl-D-alaninamide triacetate] (H-RKDV[dA]-NH2), for which the “CPM ± SE (3H-thymidine incorporation)” value in the test with T lymphocytes (0.00075 μg/culture, second experiment (blank 19275 ± 1298)) worked out at 18983 ± 2651 CPM; in the test with T lymphocytes (0.0015 μg/culture, first experiment (blank 9876 ± 951)) it was 20305 ± 2347 CPM; in the test with T lymphocytes (0.0015 μg/culture, second experiment (blank 19275 ± 1298)), 22966 CPM; in the test with T lymphocytes (0.006 μg/culture, first experiment (blank 9876 ± 951)) it was 18640 ± 1830 CPM; in the test with T lymphocytes (0.006 μg/culture, second experiment (blank 19275 ± 1298)), 28559 ± 3663 CPM; in the test with T lymphocytes (0.025 μg/culture, first experiment (blank 9876 ± 951)), 30181 ± 3895 CPM. In addition, the “CPM ± SE (3H-thymidine incorporation)” value with T lymphocytes (0.025 μg/culture, second experiment (blank 19275 ± 1298)) turned out to be 25515 ± 2486 CPM; in the test on T lymphocytes (0.1 μg/culture, first experiment (blank 9876 ± 951)), 21887 ± 3143 CPM.
Regarding “RKDVY [arginyl-lysyl-aspartyl-valyl-tyrosine]”, the “numbers of autologous rosette-forming cells in spleens” value in test [1] is “reducing the high numbers of autologous rosette-forming cells”. For the same compound, the “differentiation of murine prothymocytes to thymocytes” value in the test on murine prothymocytes is reported as “induced the differentiation of murine prothymocytes to thymocytes”. The “differentiative induction of cells of the B lineage” value with cells of the B lineage is reported as “inhibited differentiative induction of cells of the B lineage”.
